Measurements from patent EP3064205A1, “Therapeutic use of isomeric forms of 2-(4-chlorophenyl)quinolin-4-yl)(piperidin-2-yl)methanol” (Glionova AB, priority 2015, dated 2016).
Read-outs that look alike come from different tables or passages of the source.

Tests used:
Test in all cases: 3D clonogenic assay (PDX)
Assay type in all cases: cell-based, human
RXF 486 = settings: RXF 486, Renal; for IC50: Homo sapiens
Procedure, shortened: (§1)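 Tumor xenografts are dissociated with a collagenase/DNase/hyaluronidase/dispase cocktail, and the cells are frozen, then thawed and embedded in 0.4% agar over a 0.75% agar base. Compound is added at day 1 and left on continuously for 8–13 days. IC50 is taken as the curve inflection point or as the concentration at T/C = 50%.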

BXF 1352 = settings: BXF 1352, Bladder; for IC50: Homo sapiens
Procedure, shortened: as §1

LXFA 1584 = settings: LXFA 1584, Lung Adeno; for IC50: Homo sapiens
Procedure, shortened: as §1

PXF 1752 = settings: PXF 1752, Pleuramesothelioma; for IC50: Homo sapiens
Procedure, shortened: as §1

LXFA 1647 = settings: LXFA 1647, Lung Adeno; for IC50: Homo sapiens
Procedure, shortened: as §1

PAXF 2059 = settings: PAXF 2059, Pancreas; for IC50: Homo sapiens
Procedure, shortened: as §1

PAXF 2094 = settings: PAXF 2094, Pancreas; for IC50: Homo sapiens
Procedure, shortened: as §1

MEXF 1792 = settings: MEXF 1792, Melanoma; for IC50: Homo sapiens
Procedure, shortened: as §1

GXA 3023 = settings: GXA 3023, Asian Gastric; for IC50: Homo sapiens
Procedure, shortened: as §1

BXF 1218 = settings: BXF 1218, Bladder; for IC50: Homo sapiens
Procedure, shortened: as §1

GXF 214 = settings: GXF 214, Gastric; for IC50: Homo sapiens
Procedure, shortened: as §1

IC50 (RXF 486; read-out: abs. IC50): 12.8 µM
IC50 (RXF 486; read-out: rel. IC50): 12.7 µM
IC50 (BXF 1352; read-out: abs. IC50): 18.5 µM
IC50 (BXF 1352; read-out: rel. IC50): 19 µM
IC50 (LXFA 1584; read-out: abs. IC50): 7.81 µM
IC50 (LXFA 1584; read-out: rel. IC50): 6.79 µM
IC50 (PXF 1752; read-out: abs. IC50): 8.98 µM
IC50 (PXF 1752; read-out: rel. IC50): 8.85 µM
IC50 (LXFA 1647; read-out: abs. IC50): 12.1 µM
IC50 (LXFA 1647; read-out: rel. IC50): 11.9 µM
IC50 (PAXF 2059; read-out: abs. IC50): 13.8 µM
IC50 (PAXF 2059; read-out: rel. IC50): 13 µM
IC50 (PAXF 2094; read-out: abs. IC50): 8.88 µM
IC50 (PAXF 2094; read-out: rel. IC50): 8.64 µM
IC50 (MEXF 1792; read-out: abs. IC50): 6.19 µM
IC50 (MEXF 1792; read-out: rel. IC50): 6.15 µM
IC50 (GXA 3023; read-out: abs. IC50): 5.26 µM
IC50 (GXA 3023; read-out: rel. IC50): 5.02 µM
IC50 (BXF 1218; read-out: abs. IC50): 6.16 µM
IC50 (BXF 1218; read-out: rel. IC50): 6.02 µM
IC50 (GXF 214; read-out: abs. IC50): 4.92 µM
IC50 (GXF 214; read-out: rel. IC50): 4.89 µM
Structure (SMILES): O[C@H](c1cc(-c2ccc(Cl)cc2)nc2ccccc12)[C@@H]1CCCCN1 [S1, (R)-(2-(4-chlorophenyl)quinolin-4-yl)((S)-piperidin-2-yl)methanol]
b (bottom plateau of concentration-effect curve) (RXF 486): 5
t (top plateau of concentration-effect curve) (RXF 486): 97
b (bottom plateau of concentration-effect curve) (BXF 1352): 0
t (top plateau of concentration-effect curve) (BXF 1352): 97
b (bottom plateau of concentration-effect curve) (LXFA 1584): 31
t (top plateau of concentration-effect curve) (LXFA 1584): 95
b (bottom plateau of concentration-effect curve) (PXF 1752): 15
t (top plateau of concentration-effect curve) (PXF 1752): 109
b (bottom plateau of concentration-effect curve) (LXFA 1647): 13
t (top plateau of concentration-effect curve) (LXFA 1647): 98
b (bottom plateau of concentration-effect curve) (PAXF 2059): 18
t (top plateau of concentration-effect curve) (PAXF 2059): 130
b (bottom plateau of concentration-effect curve) (PAXF 2094): 30
t (top plateau of concentration-effect curve) (PAXF 2094): 105
b (bottom plateau of concentration-effect curve) (MEXF 1792): 5
t (top plateau of concentration-effect curve) (MEXF 1792): 99
b (bottom plateau of concentration-effect curve) (GXA 3023): 30
t (top plateau of concentration-effect curve) (GXA 3023): 90
b (bottom plateau of concentration-effect curve) (BXF 1218): 15
t (top plateau of concentration-effect curve) (BXF 1218): 100
b (bottom plateau of concentration-effect curve) (GXF 214): 6
t (top plateau of concentration-effect curve) (GXF 214): 99
